The values below are quoted from earlier work in patent publication US11214591B2, “Enzyme compositions, steroid derivatives, enzyme inhibitors, and methods of making same for pharmaceutical applications” (BOARD OF REGENTS, THE UNIVERSITY OF TEXAS SYSTEM, priority 2018, dated 2022).

The conditions of series [1]: in vivo.
For series [2] the following is noted: in vivo. This is another data set of the same source.
The conditions of series [3]: mice feeding study; bile acid composition of micelles.
For series [4] the following is noted: male rats.

Take `CC(=O)O[C@H]1CC[C@@]2(C)C(=CC(=O)[C@@H]3[C@@H]2CC[C@]2(C)C(=O)CC[C@@H]32)C1` [7-keto DHEA-3OAc, 7-keto dehydroepiandrosterone-3-acetate]: the PTSD symptoms result in series [1] is “reduce post-traumatic stress disorder (PTSD) symptoms”. Moreover, in series [2], the “resting metabolic rate associated with dieting” value was “reverse the resting metabolic rate associated with dieting”.

On to `C[C@H](CCC(=O)O)[C@H]1CC[C@H]2[C@@H]3[C@H](O)C[C@@H]4C[C@H](O)CC[C@]4(C)[C@H]3CC[C@]12C` [chenodeoxycholic acid], for which the cholesterol absorption in series [3] is 60%.

On to `C[C@]12CC[C@H](O)CC1=CC(=O)[C@@H]1[C@@H]2CC[C@]2(C)C(=O)CC[C@@H]12` [7-Keto DHEA, 7-keto dehydroepiandrosterone], for which the “voluntary intake of ethanol” value in series [4] is “decreased voluntary intake of ethanol”.
